Laboratory results as given in patent publication US10233177B2, “TRPV1 vanilloid receptor antagonists with a bicyclic portion” (Serentrix LLC, priority 2010, dated 2019).
pIC50: −log10 of the molar value. Where two headings read alike, the source gives them in different places.

Target: TRPV1 (Rattus norvegicus (Rat), UniProt O35433)
Assay: Ca2+ fluorescence measurements in cultured rat dorsal root ganglia neurons (capsaicin-induced calcium uptake)
Format: cell-based
Settings: for inhibition at 0.3 µM: DRG neuron
[1] = Table 1, formula IA-C, 300 nM against calcium uptake induced by 30 nM capsaicin, rat DRG neurons, read-out: % inhibition at 300 nM
[2] = capsaicin-induced calcium uptake, rat DRG neurons, read-out: inhibition of the calcium uptake
[3] = 300 nM, rat DRG neurons, read-out: abolition of capsaicin response at 300 nM
[4] = Table 1, against capsaicin-evoked [Ca2+]i mobilization, rat DRG neurons, read-out: IC50

Sequence of TRPV1 (O35433 whole entry): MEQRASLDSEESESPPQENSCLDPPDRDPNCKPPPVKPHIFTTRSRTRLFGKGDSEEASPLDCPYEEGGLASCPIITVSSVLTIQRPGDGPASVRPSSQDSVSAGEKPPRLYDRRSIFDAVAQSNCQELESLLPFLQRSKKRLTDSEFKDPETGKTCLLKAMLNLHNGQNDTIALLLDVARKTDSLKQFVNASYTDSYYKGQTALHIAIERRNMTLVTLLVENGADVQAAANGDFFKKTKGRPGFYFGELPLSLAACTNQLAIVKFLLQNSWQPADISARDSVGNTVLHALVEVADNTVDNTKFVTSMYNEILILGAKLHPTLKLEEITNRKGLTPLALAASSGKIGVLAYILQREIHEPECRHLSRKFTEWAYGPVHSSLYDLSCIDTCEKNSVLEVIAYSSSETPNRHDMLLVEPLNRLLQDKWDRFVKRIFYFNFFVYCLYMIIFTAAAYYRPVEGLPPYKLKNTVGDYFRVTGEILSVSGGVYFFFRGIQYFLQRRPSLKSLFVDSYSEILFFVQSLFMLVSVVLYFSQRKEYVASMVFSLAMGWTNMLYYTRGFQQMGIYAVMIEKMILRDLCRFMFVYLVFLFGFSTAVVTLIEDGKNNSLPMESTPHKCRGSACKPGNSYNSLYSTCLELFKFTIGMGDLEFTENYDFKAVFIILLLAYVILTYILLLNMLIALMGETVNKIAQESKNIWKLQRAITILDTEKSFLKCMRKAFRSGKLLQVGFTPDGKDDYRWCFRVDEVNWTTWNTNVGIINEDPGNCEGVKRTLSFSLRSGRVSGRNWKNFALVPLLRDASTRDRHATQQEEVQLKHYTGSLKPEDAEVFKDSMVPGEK

inhibition at 0.3 µM [1]	Structure (SMILES)	also measured
28%	O=C(NCc1ccc(C(F)(F)F)cc1F)Nc1cccc2[nH]c(=O)[nH]c12 [Example 2, 1-(2-fluoro-4-(trifluoromethyl)benzyl)-3-(2,3-dihydro-2-oxo-1H-benzo[d]imidazol-4-yl)urea]	
93%	O=C(NCc1ccc(C(F)(F)F)cc1Cl)Nc1cccc2[nH]c(=O)[nH]c12 [Example 3, 1-(2-chloro-4-(trifluoromethyl)benzyl)-3-(2,3-dihydro-2-oxo-1H-benzo[d]imidazol-4-yl)urea]	inhibition at 0.3 µM [2]: > 80%
100%	CN(C)c1cc(C(F)(F)F)ccc1CNC(=O)Nc1cccc2[nH]c(=O)[nH]c12 [Example 4, 1-(2-(dimethylamino)-4-(trifluoromethyl)benzyl)-3-(2,3-dihydro-2-oxo-1H-benzo[d]imidazol-4-yl)urea]	inhibition at 0.3 µM [3]: ~100%; inhibition at 0.3 µM [2]: > 80%; pIC50 [4]: 8.39; pIC50 (rat DRG neurons, read-out: IC50 against capsaicin-evoked [Ca2+]i mobilization): 8.39
33%	O=C(NCc1ccc(C(F)(F)F)cc1N1CCOCC1)Nc1cccc2[nH]c(=O)[nH]c12 [Example 7, 1-(4-(trifluoromethyl)-2-(4-morpholino)benzyl)-3-(2,3-dihydro-2-oxo-1H-benzo[d]imidazol-4-yl)urea]	
2%	O=C(NCc1ccc(C(F)(F)F)cc1-n1cncn1)Nc1cccc2[nH]c(=O)[nH]c12 [Example 8, 1-(4-(trifluoromethyl)-2-(1H-1,2,4-triazol-1-yl)benzyl)-3-(2,3-dihydro-2-oxo-1H-benzo[d]imidazol-4-yl)urea]	
99%	Cc1ccc(CNC(=O)Nc2cccc3[nH]c(=O)[nH]c23)c(N2CCCCC2)c1 [Example 19, 1-(4-methyl-2-(piperidin-1-yl)benzyl)-3-(2,3-dihydro-2-oxo-1H-benzo[d]imidazol-4-yl)urea]	inhibition at 0.3 µM [3]: ~100%; inhibition at 0.3 µM [2]: > 80%
48%	O=C(NCc1ccc(Cl)cc1N1CCC(O)C1)Nc1cccc2[nH]c(=O)[nH]c12 (centres unmarked) [Example 22, 1-(4-chloro-2-(3-hydroxypyrrolidin-1-yl)benzyl)-3-(2,3-dihydro-2-oxo-1H-benzo[d]imidazol-4-yl)urea]	
40%	O=C(NCc1ccc(C(F)(F)F)cc1F)Nc1cccc2oc(=O)[nH]c12 [Example 25, 1-(2-fluoro-4-(trifluoromethyl)benzyl)-3-(2,3-dihydro-2-oxobenzo[d]oxazol-4-yl)urea]	
55%	O=C(NCc1ccc(C(F)(F)F)cc1Cl)Nc1cccc2oc(=O)[nH]c12 [Example 26, 1-(2-chloro-4-(trifluoromethyl)benzyl)-3-(2,3-dihydro-2-oxobenzo[d]oxazol-4-yl)urea]	
44%	O=C(NCc1ccc(C(F)(F)F)cc1N1CCCC1)Nc1cccc2oc(=O)[nH]c12 [Example 30, 1-(4-(trifluoromethyl)-2-(pyrrolidin-1-yl)benzyl)-3-(2,3-dihydro-2-oxobenzo[d]oxazol-4-yl)urea]	
93%	O=C(NCc1ccc(C(F)(F)F)cc1N1CCOCC1)Nc1cccc2oc(=O)[nH]c12 [Example 32, 1-(4-(trifluoromethyl)-2-(4-morpholino)benzyl)-3-(2,3-dihydro-2-oxobenzo[d]oxazol-4-yl)urea]	inhibition at 0.3 µM [2]: > 80%
90%	O=C(NCc1ccc(C(F)(F)F)cc1N1CCCC1)Nc1cccc2[nH]c(=O)oc12 [Example 35, 1-(4-(trifluoromethyl)-2-(pyrrolidin-1-yl)benzyl)-3-(2,3-dihydro-2-oxobenzo[d]oxazol-7-yl)urea]	inhibition at 0.3 µM [2]: > 80%
100%	O=C(NCc1ccc(C(F)(F)F)cc1N1CCCCC1)Nc1cccc2[nH]c(=O)oc12 [Example 36, 1-(4-(trifluoromethyl)-2-(piperidin-1-yl)benzyl)-3-(2,3-dihydro-2-oxobenzo[d]oxazol-7-yl)urea]	inhibition at 0.3 µM [3]: ~100%; inhibition at 0.3 µM [2]: > 80%
52%	Cc1ccc(CNC(=O)Nc2cccc3[nH]c(=O)[nH]c23)c(N2CCCCC2)n1 [Example 40, 1-[[6-methyl-2-(1-piperidyl)-3-pyridyl]methyl]-3-(2-oxo-1,3-dihydrobenzimidazol-4-yl)urea]	
88%	O=C(NCc1ccc(C(F)(F)F)cn1)Nc1cccc2[nH]c(=O)[nH]c12 [Example 41, 1-(2-oxo-1,3-dihydrobenzimidazol-4-yl)-3-[[5-(trifluoromethyl)-2-pyridyl]methyl]urea]	inhibition at 0.3 µM [2]: > 80%
23%	O=C1COc2cccc(NC(=O)NCc3ccc(C(F)(F)F)cc3N3CCCC3)c2N1 [Example 43, 1-(4-(trifluoromethyl)-2-(pyrrolidin-1-yl)benzyl)-3-(3,4-dihydro-3-oxo-2H-benzo[b][1,4]oxazin-5-yl)urea]	
47%	O=C1COc2cccc(NC(=O)NCc3ccc(C(F)(F)F)cc3N3CCCCC3)c2N1 [Example 44, 1-(4-(trifluoromethyl)-2-(piperidin-1-yl)benzyl)-3-(3,4-dihydro-3-oxo-2H-benzo[b][1,4]oxazin-5-yl)urea]	

More lines, now with the values behind:

Structure (SMILES)	inhibition at 0.3 µM [1]	also measured
COc1cc(CNC(=O)CCCC/C=C/C(C)C)ccc1O [Capsaicin, capsaicin, reference compound]		dorsal root ganglia neurons with increase in [Ca2+] (capsaicin 0.3 μM): 95%
O=C(NCc1ccc(F)cc1)Nc1cccc2[nH]c(=O)[nH]c12 [Example 9, 1-(4-fluorobenzyl)-3-(2,3-dihydro-2-oxo-1H-benzo[d]imidazol-4-yl)urea]	18%	
O=C(NCc1ccc(Cl)cc1)Nc1cccc2[nH]c(=O)[nH]c12 [Example 10, 1-(4-chlorobenzyl)-3-(2,3-dihydro-2-oxo-1H-benzo[d]imidazol-4-yl)urea]	89%	inhibition at 0.3 µM [2]: > 80%; pIC50 [4]: 7.10
CN(C)c1cc(Cl)ccc1CNC(=O)Nc1cccc2[nH]c(=O)[nH]c12 [Example 11, 1-(4-chloro-2-(dimethylamino)benzyl)-3-(2,3-dihydro-2-oxo-1H-benzo[d]imidazol-4-yl)urea]	82%	inhibition at 0.3 µM [2]: > 80%; pIC50 [4]: 7.92
CN(C)c1ccc(CNC(=O)Nc2cccc3[nH]c(=O)[nH]c23)cc1 [Example 14, 1-(4-(dimethylamino)benzyl)-3-(2,3-dihydro-2-oxo-1H-benzo[d]imidazol-4-yl)urea]	32%	
O=C(NCc1ccc(N2CCCC2)cc1)Nc1cccc2[nH]c(=O)[nH]c12 [Example 15, 1-(4-(pyrrolidin-1-yl)benzyl)-3-(2,3-dihydro-2-oxo-1H-benzo[d]imidazol-4-yl)urea]	54%	
O=C(NCc1ccc(N2CCCCC2)cc1)Nc1cccc2[nH]c(=O)[nH]c12 [Example 16, 1-(4-(piperidin-1-yl)benzyl)-3-(2,3-dihydro-2-oxo-1H-benzo[d]imidazol-4-yl)urea]	86%	inhibition at 0.3 µM [2]: > 80%
Cc1ccc(CNC(=O)Nc2cccc3[nH]c(=O)[nH]c23)cc1 [Example 17, 1-(4-methylbenzyl)-3-(2,3-dihydro-2-oxo-1H-benzo[d]imidazol-4-yl)urea]	44%	
Cc1ccc(CNC(=O)Nc2cccc3[nH]c(=O)[nH]c23)c(N(C)C)c1 [Example 18, 1-(2-(dimethylamino)-4-methylbenzyl)-3-(2,3-dihydro-2-oxo-1H-benzo[d]imidazol-4-yl)urea]	54%	
O=C(NCc1ccncc1)Nc1cccc2[nH]c(=O)[nH]c12 [Example 20, 1-(2,3-dihydro-2-oxo-1H-benzo[d]imidazol-4-yl)-3-((pyridin-4-yl)methyl)urea]	18%	
O=C(NCc1ccc(Cl)nc1)Nc1cccc2[nH]c(=O)[nH]c12 [Example 21, 1-((6-chloropyridin-3-yl)methyl)-3-(2,3-dihydro-2-oxo-1H-benzo[d]imidazol-4-yl)urea]	79%	
O=C(NCc1ccc(C(F)(F)F)cc1)Nc1cccc2oc(=O)[nH]c12 [Example 24, 1-(4-(trifluoromethyl)benzyl)-3-(2,3-dihydro-2-oxobenzo[d]oxazol-4-yl)urea]	40%	
O=C(NCc1ccc(F)cc1C(F)(F)F)Nc1cccc2oc(=O)[nH]c12 [Example 27, 1-(4-fluoro-2-(trifluoromethyl)benzyl)-3-(2,3-dihydro-2-oxobenzo[d]oxazol-4-yl)urea]	45%	
O=C(NCc1ccc(Cl)cc1C(F)(F)F)Nc1cccc2oc(=O)[nH]c12 [Example 28, 1-(4-chloro-2-(trifluoromethyl)benzyl)-3-(2,3-dihydro-2-oxobenzo[d]oxazol-4-yl)urea]	40%	
CN(C)c1cc(C(F)(F)F)ccc1CNC(=O)Nc1cccc2oc(=O)[nH]c12 [Example 29, 1-(2-(dimethylamino)-4-(trifluoromethyl)benzyl)-3-(2,3-dihydro-2-oxobenzo[d]oxazol-4-yl)urea]	8%	
O=C(NCc1ccc(Cl)cc1)Nc1cccc2oc(=O)[nH]c12 [Example 33, 1-(4-chlorobenzyl)-3-(2,3-dihydro-2-oxobenzo[d]oxazol-4-yl)urea]	16%	
O=C(NCc1ccc(C(F)(F)F)cc1)Nc1cccc2[nH]c(=O)oc12 [Example 34, 1-(4-(trifluoromethyl)benzyl)-3-(2,3-dihydro-2-oxobenzo[d]oxazol-7-yl)urea]	19%	
O=C(NCc1ccc(C(F)(F)F)nc1N1CCCC1)Nc1cccc2[nH]c(=O)[nH]c12 [Example 39, 1-(2-oxo-1,3-dihydrobenzimidazol-4-yl)-3-[[2-pyrrolidin-1-yl-6-(trifluoromethyl)-3-pyridyl]methyl]urea]		abolition of capsaicin response at 300 nM (300 nM, rat DRG neurons): around 100%; % inhibition at 300 nM (Table 1, formula IA-C, 300 nM against calcium uptake induced by 30 nM capsaicin, rat DRG neurons): 98%; pIC50 [4]: 8.02; inhibition of the calcium uptake (capsaicin-induced calcium uptake, rat DRG neurons): more than 80%
O=C1COc2cccc(NC(=O)NCc3ccc(C(F)(F)F)cc3)c2N1 [Example 42, 1-(4-(trifluoromethyl)benzyl)-3-(3,4-dihydro-3-oxo-2H-benzo[b][1,4]oxazin-5-yl)urea]	30%	
